Structures are written as SMILES. In brackets after ≈: the same amount, converted by molar mass.

One data set concerns the target hERG (Homo sapiens, UniProt Q12809). Briefly: hERG channel blockade, manual patch clamp. It counts as cell-based. Particulars: cloned hERG potassium channels, room temperature; for inhibition at 0.3 µM: read-out: hERG % inhib. at 0.3 µM; for inhibition at 1 µM: read-out: hERG % inhib. at 1.0 µM. The protocol:
Selected compounds were evaluated for hERG channel blockade (Table 4) by WuXi AppTec (Shanghai) Co., Ltd. This was carried out using cloned hERG potassium channels according to their standard manual patch clamp method. Two concentrations (0.3 and 1.0 µM) were tested (at room temperature), and at least three replicates were obtained for each. Amitryptyline was used as a standard.

Data set [1] is described as follows: Microsomal stability, human liver microsomes. The note with it: pH 7.4; for microsomal CLint at 1 μM: human liver microsomes, read-out: HLM Clint(mic). It counts as in vitro ADME. On the procedure:
(§1) Assays were performed by WuXi AppTec (Shanghai) Co., Ltd. The test compounds (Table 4) (at 1 μM) were incubated at 37 °C with liver microsomes from human or CD-1 mice in the presence of a NADPH regenerating system and phosphate buffer (100 mM, pH 7.4) at 0.5 mg/mL microsomal protein (the positive controls were testosterone, propafenone, and diclofenac). Samples were removed at time intervals of 0, 5, 10, 20, 30, and 60 min and immediately mixed with cold CH3CN (containing 0.1 μg/mL of tolbutamide as an internal standard) and then centrifuged prior to analysis by LCMS/MS.
Background: Liver microsomes are a subcellular fraction often used to study metabolism.

Data set [2] has as its system VERO green monkey kidney cells. Briefly: VERO mammalian cell toxicity assay. It counts as cell-based. Particulars: Chlorocebus sabaeus; inhibition of growth of VERO green monkey kidney epithelial cells.
Data set [3] relates to Mycobacterium tuberculosis (strain H37Rv). Briefly: LORA minimum inhibitory concentration assay (low-oxygen/non-replicating). The note with it: M.tb H37Rv, 90% inhibition of growth.
Data set [4] can be described thus: Microsomal stability, mouse liver microsomes. It counts as in vitro ADME. Particulars: for CLint scaled at 1 μM / half-life at 1 μM: CD-1, mouse, microsomes, pH 7.4; for microsomal CLint at 1 μM: CD-1, pH 7.4, mouse liver microsomes, read-out: MLM Clint(mic). The protocol: as §1
Data set [5] concerns Mycobacterium tuberculosis (strain H37Rv). Briefly: MABA minimum inhibitory concentration assay (aerobic/replicating). Particulars: M.tb H37Rv; for MIC90: Mycobacterium tuberculosis, aerobic/replicating, 90% inhibition of growth; for anti-mycobacterial activity in words: MABA/LORA. It counts as cell-based.

Chain of hERG (Q12809 whole entry): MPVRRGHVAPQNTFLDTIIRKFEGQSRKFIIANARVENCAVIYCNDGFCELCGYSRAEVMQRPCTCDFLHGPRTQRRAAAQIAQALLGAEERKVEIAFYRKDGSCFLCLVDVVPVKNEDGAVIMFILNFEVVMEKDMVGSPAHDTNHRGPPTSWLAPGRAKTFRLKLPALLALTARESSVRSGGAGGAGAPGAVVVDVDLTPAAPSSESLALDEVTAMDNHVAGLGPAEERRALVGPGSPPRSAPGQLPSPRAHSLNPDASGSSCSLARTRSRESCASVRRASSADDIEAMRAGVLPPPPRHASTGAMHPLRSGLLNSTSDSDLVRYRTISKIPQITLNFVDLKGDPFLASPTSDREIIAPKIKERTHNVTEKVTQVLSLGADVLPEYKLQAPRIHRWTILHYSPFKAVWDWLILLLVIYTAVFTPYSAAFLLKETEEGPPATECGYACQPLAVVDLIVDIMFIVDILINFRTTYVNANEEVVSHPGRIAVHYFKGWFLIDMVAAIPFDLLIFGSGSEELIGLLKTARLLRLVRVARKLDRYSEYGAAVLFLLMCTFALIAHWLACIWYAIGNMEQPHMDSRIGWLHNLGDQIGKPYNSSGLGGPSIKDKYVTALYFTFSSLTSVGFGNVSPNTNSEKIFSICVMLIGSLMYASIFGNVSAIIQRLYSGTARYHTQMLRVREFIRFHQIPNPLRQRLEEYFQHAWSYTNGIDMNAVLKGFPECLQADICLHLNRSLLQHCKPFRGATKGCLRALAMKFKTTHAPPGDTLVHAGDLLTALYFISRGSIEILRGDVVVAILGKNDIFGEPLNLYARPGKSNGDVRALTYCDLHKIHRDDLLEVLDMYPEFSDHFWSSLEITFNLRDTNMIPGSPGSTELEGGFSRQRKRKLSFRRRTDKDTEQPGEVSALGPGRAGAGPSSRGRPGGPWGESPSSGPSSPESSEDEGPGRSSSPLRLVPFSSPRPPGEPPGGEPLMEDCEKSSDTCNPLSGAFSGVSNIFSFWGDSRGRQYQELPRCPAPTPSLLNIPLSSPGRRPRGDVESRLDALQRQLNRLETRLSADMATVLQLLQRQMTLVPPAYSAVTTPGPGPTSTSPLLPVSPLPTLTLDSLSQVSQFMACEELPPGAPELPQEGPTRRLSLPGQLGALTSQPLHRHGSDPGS

For `CC(C)(C)c1ccc(-c2cc(NCc3ccccn3)n3ncc(-c4ccc(F)cc4)c3n2)cc1` [Compound 36, 5-(4-(Tert-butyl)phenyl)-3-(4-fluorophenyl)-N-(pyridin-2-ylmethyl)pyrazolo[1,5-a]pyrimidin-7-amine], at hERG, the inhibition at 0.3 µM amounted to 0% and the inhibition at 1 µM amounted to 0%. For the same molecule, in data set [1] (human, microsomes), the CLint scaled (in general, a measure of how fast metabolising enzymes remove a compound, apart from limits set by blood flow) at 1 μM is below 8.6 mL/min/kg and the half-life at 1 μM is above 2.42 h. Besides, the microsomal CLint at 1 μM in data set [1] was below 9.6 µL/min/mg. Moreover, in data set [2], the IC50 (commonly the concentration that inhibits the measured activity by half) is above 32 µg/mL. The “MIC90 LORA” value in data set [3] is 1.9 µg/mL (≈ 4.21 µM). For the same molecule, in data set [4], the CLint scaled at 1 μM was below 38 mL/min/kg, the half-life at 1 μM is above 2.42 h and the microsomal CLint at 1 μM is below 9.6 µL/min/mg. In data set [5], the MIC90 (in general, an inhibitory concentration at the 90% level, which refers to growth in some studies and to a panel of isolates in others) turned out to be 1.7 µg/mL (≈ 3.76 µM).
Turning to `Fc1ccc(-c2cnn3c(NCc4ccccn4)cc(-c4ccoc4)nc23)cc1` [Compound 44, 3-(4-Fluorophenyl)-5-(furan-3-yl)-N-(pyridin-2-ylmethyl)pyrazolo[1,5-a]pyrimidin-7-amine], at hERG, the inhibition at 0.3 µM was found to be 4% and the inhibition at 1 µM was 14%. In data set [1] (human, microsomes), the CLint scaled at 1 μM was 66 mL/min/kg and the half-life at 1 μM was determined as 0.317 h. Further, the microsomal CLint at 1 μM in data set [1] was determined as 74 µL/min/mg. Further, the half-life at 1 μM in data set [1] (human/mouse liver microsomes not distinguished, read-out: T½ values (microsomal stability)) is below 1.42 h. For the same molecule, in data set [2], the IC50 is above 32 µg/mL. For the same molecule, the “MIC90 LORA” value in data set [3] worked out at 0.16 µg/mL (≈ 0.415 µM). Also, in data set [4], the CLint scaled at 1 μM was determined as 570 mL/min/kg, the half-life at 1 μM came to 0.167 h and the microsomal CLint at 1 μM is 144 µL/min/mg. Also, the MIC90 in data set [5] came out at 0.96 µg/mL (≈ 2.49 µM).
Consider `COc1ccc(CNc2cc(-c3ccccc3)nc3c(-c4ccc(F)cc4)cnn23)nc1` [Compound 54, 3-(4-Fluorophenyl)-N-((5-methoxypyridin-2-yl)methyl)-5-phenylpyrazolo[1,5-a]pyrimidin-7-amine], for which the melting point (commonly the temperature of the solid-liquid transition) lay within 212 to 214 °C. In data set [1] (human, microsomes), this molecule showed a CLint scaled at 1 μM below 8.6 mL/min/kg and a half-life at 1 μM above 2.42 h. The microsomal CLint at 1 μM in data set [1] is below 9.6 µL/min/mg. Also, the IC50 in data set [2] was above 32 µg/mL. Besides, in data set [3], the “MIC90 LORA” value turned out to be 1.3 µg/mL (≈ 3.06 µM). Besides, in data set [4], the CLint scaled at 1 μM was below 38 mL/min/kg, the half-life at 1 μM was above 2.42 h and the microsomal CLint at 1 μM is below 9.6 µL/min/mg. In data set [5], this molecule registered an MIC90 of 3.6 µg/mL (≈ 8.46 µM).
Molecule `Cc1ccnc(CNc2cc(-c3ccccc3)nc3c(-c4ccc(F)cc4)cnn23)c1` [Compound 62, 3-(4-Fluorophenyl)-N-((4-methylpyridin-2-yl)methyl)-5-phenylpyrazolo[1,5-a]pyrimidin-7-amine] had a melting point of 157 to 159 °C. In data set [1] (human, microsomes), the CLint scaled at 1 μM was below 8.6 mL/min/kg and the half-life at 1 μM was above 2.42 h. The microsomal CLint at 1 μM in data set [1] was below 9.6 µL/min/mg. In addition, the IC50 in data set [2] was above 32 µg/mL. The “MIC90 LORA” value in data set [3] was 0.5 µg/mL (≈ 1.22 µM). In data set [4], the CLint scaled at 1 μM is below 38 mL/min/kg, the half-life at 1 μM was above 2.42 h and the microsomal CLint at 1 μM was below 9.6 µL/min/mg. Moreover, in data set [5], the MIC90 turned out to be 1.8 µg/mL (≈ 4.4 µM).
In the case of `N#Cc1cccnc1CNc1cc(-c2ccccc2)nc2c(-c3ccc(F)cc3)cnn12` [Compound 72, 2-(((3-(4-Fluorophenyl)-5-phenylpyrazolo[1,5-a]pyrimidin-7-yl)amino)methyl)nicotinonitrile], the melting point lay within 241 to 244 °C. In addition, in data set [2], the IC50 was above 32 µg/mL. In data set [3], the “MIC90 LORA” value is reported as above 32 µg/mL. In addition, in data set [5], the MIC90 was above 32 µg/mL.
The molecule `COc1cccc(-c2cnn3c(NCc4ccccn4)cc(-c4ccccc4)nc23)c1` [Compound 16, 3-(3-Methoxyphenyl)-5-phenyl-N-(pyridin-2-ylmethyl)pyrazolo[1,5-a]pyrimidin-7-amine] had a melting point of 122 to 124 °C. Besides, in data set [2], the IC50 was above 32 µg/mL. For the same molecule, the “MIC90 LORA” value in data set [3] is recorded as 10 µg/mL (≈ 24.5 µM). The MIC90 in data set [5] stood at 7.6 µg/mL (≈ 18.7 µM).
The matching figures for `CN1CCN(c2ccnc(CNc3cc(-c4ccccc4)nc4c(-c5ccc(F)cc5)cnn34)c2)CC1` [Compound 65, 3-(4-Fluorophenyl)-N-((4-(4-methylpiperazin-1-yl)pyridin-2-yl)methyl)-5-phenylpyrazolo[1,5-a]pyrimidin-7-amine]: 203 to 205 °C, 10.7 µg/mL (≈ 21.7 µM), 0.73 µg/mL (≈ 1.48 µM) and 0.09 µg/mL (≈ 0.182 µM).
`CN(C)CCN(C)c1ccnc(CNc2cc(-c3ccccc3)nc3c(-c4ccc(F)cc4)cnn23)c1` [Compound 67, N1-(2-(((3-(4-Fluorophenyl)-5-phenylpyrazolo[1,5-a]pyrimidin-7-yl)amino)methyl)pyridin-4-yl)-N1,N2,N2-trimethylethane-1,2-diamine] came in with a melting point of 158 to 160 °C. Further, the IC50 in data set [2] was determined as 9.9 µg/mL (≈ 20 µM). Besides, in data set [3], the “MIC90 LORA” value was 1.5 µg/mL (≈ 3.03 µM). This molecule showed an MIC90 in data set [5] of 1.7 µg/mL (≈ 3.43 µM).
For the molecule `Fc1ccc(-c2cnn3c(NCc4ccc(N5CCCCC5)cn4)cc(-c4ccccc4)nc23)cc1` [Compound 59, 3-(4-Fluorophenyl)-5-phenyl-N-((5-(piperidin-1-yl)pyridin-2-yl)methyl)pyrazolo[1,5-a]pyrimidin-7-amine], the melting point fell in the range of 179 to 182 °C. In data set [2], this molecule had an IC50 above 32 µg/mL. Moreover, in data set [3], the “MIC90 LORA” value amounted to 0.85 µg/mL (≈ 1.78 µM). In data set [5], this molecule displayed an MIC90 of 0.96 µg/mL (≈ 2.01 µM).
The matching figures for `Fc1ccc(-c2cnn3c(NCc4cccc(F)n4)cc(-c4ccccc4)nc23)cc1` [Compound 45, 3-(4-Fluorophenyl)-N-((6-fluoropyridin-2-yl)methyl)-5-phenylpyrazolo[1,5-a]pyrimidin-7-amine]: 196 to 198 °C, above 32 µg/mL, above 32 µg/mL and above 32 µg/mL.
For `Cc1ccc(-c2cnn3c(NCc4ccccn4)cc(-c4ccccc4)nc23)cc1` [Compound 19, 5-Phenyl-N-(pyridin-2-ylmethyl)-3-(p-tolyl)pyrazolo[1,5-a]pyrimidin-7-amine], the melting point fell in the range of 172 to 174 °C. This molecule also gave an IC50 in data set [2] above 32 µg/mL. Moreover, in data set [3], the “MIC90 LORA” value was above 32 µg/mL. Besides, in data set [5], the “anti-mycobacterial activity in words” value is “inactive” and the MIC90 is above 32 µg/mL.
`N#Cc1ccnc(CNc2cc(-c3ccccc3)nc3c(-c4ccc(F)cc4)cnn23)c1` [Compound 61, 2-(((3-(4-Fluorophenyl)-5-phenylpyrazolo[1,5-a]pyrimidin-7-yl)amino)methyl)isonicotinonitrile] registered a melting point of 233 to 236 °C. The molecule further had an IC50 in data set [2] above 32 µg/mL. Moreover, in data set [3], the “MIC90 LORA” value is on record as above 32 µg/mL. In data set [5], the “anti-mycobacterial activity in words” value was “inactive” and the MIC90 was above 32 µg/mL.
In the case of `Fc1ccc(-c2cnn3c(NCc4ncccc4Br)cc(-c4ccccc4)nc23)cc1` [Compound 71, N-((3-Bromopyridin-2-yl)methyl)-3-(4-fluorophenyl)-5-phenylpyrazolo[1,5-a]pyrimidin-7-amine], the melting point was 189 to 191 °C. Besides, the IC50 in data set [2] was above 32 µg/mL. Besides, the “MIC90 LORA” value in data set [3] is above 32 µg/mL. This molecule yielded an MIC90 in data set [5] above 32 µg/mL.
`FC(F)(F)c1ccccc1-c1cnn2c(NCc3ccccn3)cc(-c3ccccc3)nc12` [Compound 13, 5-Phenyl-N-(pyridin-2-ylmethyl)-3-(2-(trifluoromethyl)phenyl)pyrazolo[1,5-a]pyrimidin-7-amine]: the melting point was 166 to 168 °C. In data set [2], this molecule had an IC50 above 32 µg/mL. In data set [3], the “MIC90 LORA” value was above 32 µg/mL. For the same molecule, the MIC90 in data set [5] is above 32 µg/mL.
Turning to `COc1cccc(CNc2cc(-c3ccccc3)nc3c(-c4ccc(F)cc4)cnn23)n1` [Compound 48, 3-(4-Fluorophenyl)-N-((6-methoxypyridin-2-yl)methyl)-5-phenylpyrazolo[1,5-a]pyrimidin-7-amine], the melting point was 163 to 165 °C. The molecule further had a half-maximal inhibitory concentration (IC50) in data set [2] above 32 µg/mL. Moreover, in data set [3], the “MIC90 LORA” value is given as above 32 µg/mL. The molecule also showed an MIC90 in data set [5] above 32 µg/mL.
`Fc1ccc(-c2cnn3c(NCc4cccc(Br)n4)cc(-c4ccccc4)nc23)cc1` [Compound 46, N-((6-Bromopyridin-2-yl)methyl)-3-(4-fluorophenyl)-5-phenylpyrazolo[1,5-a]pyrimidin-7-amine] returned a melting point of 160 to 161 °C. Also, the IC50 in data set [2] is above 32 µg/mL. Moreover, the “MIC90 LORA” value in data set [3] is listed as above 32 µg/mL. In data set [5], the MIC90 is above 32 µg/mL.
